# Reference: patent publication US20250388565A1, “ESTROGEN RECEPTOR ALPHA DEGRADERS AND METHODS OF USE THEREOF” (Relay Therapeutics, Inc., priority 2022, published 2025)
# Target: T1, ERα protein (HiBiT-tagged) in ESR1_HiBiT KI MCF7 cells (Homo sapiens, UniProt P03372)
# T1 sequence (P03372 1-595): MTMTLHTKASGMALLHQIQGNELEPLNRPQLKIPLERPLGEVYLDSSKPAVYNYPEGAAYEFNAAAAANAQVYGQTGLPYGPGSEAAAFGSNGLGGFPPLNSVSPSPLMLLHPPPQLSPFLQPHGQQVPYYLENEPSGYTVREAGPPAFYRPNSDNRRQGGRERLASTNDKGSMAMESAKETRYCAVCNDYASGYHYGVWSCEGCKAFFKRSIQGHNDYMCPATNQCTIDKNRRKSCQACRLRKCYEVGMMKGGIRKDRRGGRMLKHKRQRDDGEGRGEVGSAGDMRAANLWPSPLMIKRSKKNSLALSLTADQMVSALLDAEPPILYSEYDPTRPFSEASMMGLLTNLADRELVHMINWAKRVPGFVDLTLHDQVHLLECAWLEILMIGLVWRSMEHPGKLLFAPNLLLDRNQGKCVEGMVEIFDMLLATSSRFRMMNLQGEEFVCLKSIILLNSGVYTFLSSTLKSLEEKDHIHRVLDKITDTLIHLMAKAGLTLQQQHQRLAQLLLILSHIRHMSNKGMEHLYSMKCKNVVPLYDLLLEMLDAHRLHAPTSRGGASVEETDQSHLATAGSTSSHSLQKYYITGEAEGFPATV
# Test: Nano Glo HiBiT Lytic Degradation Assay
# Assay type: cell-based
# Conditions: 6 hours with compound, 14-point dose response 1:3, bell-shape curve fit, half-maximal effect of first Hill model, read-out: MCF7 ESR1 HiBiT - (DC50)
# Method in brief: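 ESR1_HiBiT knock-in MCF7 cells were seeded 24 h before treatment, then exposed to compounds for 6 h at 37° C (14-point 1:3 curves, 10 mM top stock, 0.1% DMSO final, duplicates). HiBiT-ERα was read by lytic LgBiT luminescence, background-subtracted and normalized to DMSO. DC50 was taken from the half-maximal point of the first Hill component of a bell-shaped fit.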
row,SMILES,DC50 [nM]
1,"C[C@]1(C2CCCCC2)OCc2cc(O)ccc2[C@@H]1c1ccc(N2CCC(CN3CCN(c4ccc5c(c4)CN([C@H]4CCC(=O)NC4=O)C5=O)CC3)CC2)cc1 [Compound I-257, (S)-3-(5-(4-((1-(4-((3R,4S)-3-cyclohexyl-7-hydroxy-3-methylisochroman-4-yl)phenyl)piperidin-4-yl)methyl)piperazin-1-yl)-1-oxoisoindolin-2-yl)piperidine-2,6-dione]",3300
2,"CC(C)C[C@@H]1OCc2cc(O)ccc2[C@H]1c1ccc(N2CCC(CN3CCN(c4ccc5c(c4)CN([C@H]4CCC(=O)NC4=O)C5=O)CC3)CC2)cc1 (single isomer, unassigned) [Compound I-222]",0.32
3,"COc1cc(N2CCC(CN3CCN(c4ccc5c(c4)CN([C@H]4CCC(=O)NC4=O)C5=O)CC3)CC2)ccc1[C@@H]1c2ccc(O)cc2CC[C@@H]1C1CCCCC1 [Compound I-152, (S)-3-(5-(4-((1-(4-((1S,2R)-2-cyclohexyl-6-hydroxy-1,2,3,4-tetrahydronaphthalen-1-yl)-3-methoxyphenyl)piperidin-4-yl)methyl)piperazin-1-yl)-1-oxoisoindolin-2-yl)piperidine-2,6-dione]",1.43
4,"O=C1CC[C@H](N2Cc3cc(N4CCN(CC5CCN(c6ccc([C@@H]7c8ccc(O)cc8CO[C@@]78CCc7ccccc78)cc6)CC5)CC4)ccc3C2=O)C(=O)N1 [Compound I-77, (S)-3-(5-(4-((1-(4-((1S,4′R)-7′-hydroxy-2,3-dihydrospiro[indene-1,3′-isochroman]-4′-yl)phenyl)piperidin-4-yl)methyl)piperazin-1-yl)-1-oxoisoindolin-2-yl)piperidine-2,6-dione]",0.2
5,"C[C@@]1(C2CCCCC2)OCc2cc(O)ccc2[C@@H]1c1ccc(N2CCC(CN3CCN(c4ccc5c(c4)CN([C@H]4CCC(=O)NC4=O)C5=O)CC3)CC2)cc1 (single isomer, unassigned) [Compound I-256]",18
6,"C[C@@]1(C2CCCCC2)CCc2cc(O)ccc2[C@@H]1c1ccc(N2CCC(CN3CCN(c4ccc5c(c4)CN([C@H]4CCC(=O)NC4=O)C5=O)CC3)CC2)cc1 [Compound I-237, (S)-3-(5-(4-((1-(4-((1S,2S)-2-cyclohexyl-6-hydroxy-2-methyl-1,2,3,4-tetrahydronaphthalen-1-yl)phenyl)piperidin-4-yl)methyl)piperazin-1-yl)-1-oxoisoindolin-2-yl)piperidine-2,6-dione]",≥ 10000
7,"O=C1CC[C@H](N2Cc3cc(N4CCN(CC5CCN(c6ccc([C@H]7c8ccc(O)cc8C(F)(F)C[C@H]7c7cc(F)ccc7F)cc6)CC5)CC4)ccc3C2=O)C(=O)N1 [Compound I-317, (S)-3-(5-(4-((1-(4-((1S,2R)-2-(2,5-difluorophenyl)-4,4-difluoro-6-hydroxy-1,2,3,4-tetrahydronaphthalen-1-yl)phenyl)piperidin-4-yl)methyl)piperazin-1-yl)-1-oxoisoindolin-2-yl)piperidine-2,6-dione]",3
8,"O=C1CC[C@H](N2Cc3cc(N4CCN(CC5CCN(c6ccc([C@@H]7c8ccc(O)cc8CC[C@@H]7C7CCCCC7)c(F)c6)CC5)CC4)ccc3C2=O)C(=O)N1 [Compound I-137, (S)-3-(5-(4-((1-(4-((1S,2R)-2-cyclohexyl-6-hydroxy-1,2,3,4-tetrahydronaphthalen-1-yl)-3-fluorophenyl)piperidin-4-yl)methyl)piperazin-1-yl)-1-oxoisoindolin-2-yl)piperidine-2,6-dione]",≥ 10000

# The next lines start with the values.
row,DC50 [nM],SMILES
1,0.5,O=C1CC[C@H](N2Cc3cc(N4CCN(C(=O)C5CCN(c6ccc([C@@H]7c8ccc(O)cc8CC[C@@H]7c7ccccc7)cc6)CC5)CC4)ccc3C2=O)C(=O)N1 [II-68]
2,0.77,"C[C@@H]1Cc2cc(O)ccc2[C@@H](c2ccc(N3CCC(CN4CCN(c5ccc6c(c5)CN([C@H]5CCC(=O)NC5=O)C6=O)CC4)CC3)cc2)[C@H]1c1ccccc1 [Compound I-175, (S)-3-(5-(4-((1-(4-((1R,2S,3R)-6-hydroxy-3-methyl-2-phenyl-1,2,3,4-tetrahydronaphthalen-1-yl)phenyl)piperidin-4-yl)methyl)piperazin-1-yl)-1-oxoisoindolin-2-yl)piperidine-2,6-dione]"
3,0.28,"O=C1CC[C@H](c2ccc(N3CCC4(CCN(CC5CCN(c6ccc([C@@H]7c8ccc(O)cc8CO[C@@H]7c7ccccc7)cc6)CC5)C4)CC3)cc2)C(=O)N1 (single isomer, unassigned) [Compound I-389]"
4,19,"O=C1CC[C@H](N2Cc3cc(N4CCN(CC5CCN(c6ccc([C@H]7c8ccc(O)cc8CC[C@@]78CCc7ccccc78)cc6)CC5)CC4)ccc3C2=O)C(=O)N1 (relative stereo) [Compound I-261, (S)-3-(5-(4-((1-(4-((1S*,1′R*)-6′-hydroxy-2,3,3′,4′-tetrahydro-1′H-spirofindene-1,2′-naphthalen]-1′-yl)phenyl)piperidin-4-yl)methyl)piperazin-1-yl)-1-oxoisoindolin-2-yl)piperidine-2,6-dione]"
5,≥ 10000,"C[C@@H]1C[C@@H](c2ccccc2)[C@@H](c2ccc(N3CCC(CN4CCN(c5ccc6c(c5)CN([C@H]5CCC(=O)NC5=O)C6=O)CC4)CC3)cc2)c2ccc(O)cc21 (single isomer, unassigned) [Compound I-332]"
6,≥ 10000,"O=C1CCC(c2ccc(N3CCN(CC4CCN(c5ccc([C@H]6c7ccc(O)cc7CC[C@H]6c6ccccc6)cc5)CC4)CC3)cc2)C(=O)N1 (stereo partly drawn) [Compound I-11, 3-[4-[4-[[1-[4-[(1S,2R)-6-hydroxy-2-phenyl-tetralin-1-yl]phenyl]-4-piperidyl]methyl]piperazin-1-yl]phenyl]piperidine-2,6-dione]"
7,16.5,"O=C1CCC(c2ccc(N3CC[C@]4(CCN(CC5CCN(c6ccc([C@@H]7c8ccc(O)cc8CC[C@@H]7c7ccccc7)cc6)CC5)C4)C3)cc2)C(=O)N1 (single isomer, unassigned) [Compound I-279]"
8,0.27,"O=C1CC[C@H](N2Cc3cc(N4CCN(CC5CCN(c6ccc([C@H]7c8ccc(O)cc8CC[C@H]7c7ccc8c(c7)CCC8)cc6)CC5)CC4)ccc3C2=O)C(=O)N1 (single isomer, unassigned) [Compound I-413]"
9,6,"O=C1CCC(N2Cc3cc([C@H]4CCN(CC5CCN(c6ccc([C@@H]7c8ccc(O)cc8CC[C@@H]7c7ccccc7)cc6)CC5)CC4(F)F)ccc3C2=O)C(=O)N1 (single isomer, unassigned) [II-92]"
10,35,"O=C1CC[C@H](N2Cc3cc(N4CCN(CC5CCN(c6ccc([C@H]7c8ccc(O)cc8C(F)(F)C[C@H]7c7ccc(C(F)(F)F)cc7)cc6)CC5)CC4)ccc3C2=O)C(=O)N1 [Compound I-330, (S)-3-(5-(4-((1-(4-((1S,2R)-4,4-difluoro-6-hydroxy-2-(4-(trifluoromethyl)phenyl)-1,2,3,4-tetrahydronaphthalen-1-yl)phenyl)piperidin-4-yl)methyl)piperazin-1-yl)-1-oxoisoindolin-2-yl)piperidine-2,6-dione]"
11,0.78,"COc1cccc([C@H]2OCc3cc(O)ccc3[C@H]2c2ccc(N3CCC(CN4CCN(c5ccc6c(c5)CN([C@H]5CCC(=O)NC5=O)C6=O)CC4)CC3)cc2)c1 [Compound I-373, (S)-3-(5-(4-((1-(4-((3S,4R)-7-hydroxy-3-(3-methoxyphenyl)isochroman-4-yl)phenyl)piperidin-4-yl)methyl)piperazin-1-yl)-1-oxoisoindolin-2-yl)piperidine-2,6-dione]"
